Legend:
DU-145 = experiment: Antiproliferative activity against human DU145 cells after 96 hrs by propidium iodide staining based fluorescence 2D monolayer assay; type: functional, cell-based; conditions: DU-145, 96 h
[1] = 96 h
Description: Solubility in RPMI1640 culture medium at <30 uM incubated for 4 days by microscopic analysis

[2] = 33000 µM
Description: Solubility in 100% DMSO at 33 mM at -20 degC

CWR22R = experiment: Antiproliferative activity against human 22Rv1 cells after 96 hrs by propidium iodide staining based fluorescence 2D monolayer assay; type: functional, cell-based; conditions: 22Rv1, 96 h
VCaP = experiment: Antiproliferative activity against human VCaP cells after 96 hrs by propidium iodide staining based fluorescence 2D monolayer assay; type: functional, cell-based
LNCaP = experiment: Antiproliferative activity against human LNCAP cells after 96 hrs by propidium iodide staining based fluorescence 2D monolayer assay; type: functional, cell-based

SMILES | IC50 (DU-145) | solubility [1] | solubility [2] | IC50 (CWR22R) | IC50 (VCaP) | IC50 (LNCaP)
CC(O)(CS(=O)(=O)c1cccc(C(F)(F)F)c1)C(=O)Nc1ccc(C#N)c(C(F)(F)F)c1 (stereo not given) | 39.1 µM | Soluble | Soluble | 21 µM | 39.7 µM | 14.9 µM
CC(O)(CSc1ccc(C(F)(F)F)cc1)C(=O)Nc1ccc([N+](=O)[O-])c(C(F)(F)F)c1 (stereo not given) | 22.5 µM | Soluble | Soluble | 16.4 µM | 21.2 µM | 28.7 µM
CC(O)(COc1cccc(OC(F)(F)F)c1)C(=O)Nc1ccc(C#N)c(C(F)(F)F)c1 (stereo not given) | 16.4 µM | Soluble | Soluble | 9.79 µM | 9.91 µM | 9.83 µM
CC(O)(CSc1ccc(F)cc1)C(=O)Nc1ccc(C#N)cc1C(F)(F)F (stereo not given) | 43.3 µM | Soluble | Soluble | 30.1 µM | 45.5 µM | 26.4 µM
C[C@](O)(CS(=O)(=O)c1ccccc1C(F)(F)F)C(=O)Nc1ccc(C#N)c(C(F)(F)F)c1 | 44.3 µM | Soluble | Soluble | 34.8 µM | 37.3 µM | 32.2 µM
CC(O)(COc1ccc(F)c(F)c1)C(=O)Nc1ccc(C#N)cc1C(F)(F)F (stereo not given) | 41.9 µM | Soluble | Soluble | 37 µM | 47.2 µM | 34.8 µM
CC(O)(COc1ccccc1C(F)(F)F)C(=O)Nc1ccc(C#N)c(C(F)(F)F)c1 (stereo not given) | 17.3 µM | Soluble | Soluble | 11.6 µM | 16.6 µM | 9.68 µM
CC(O)(CSc1ccccc1C(F)(F)F)C(=O)Nc1ccc(C(F)(F)F)cc1 (stereo not given) | 8.76 µM | Soluble | Soluble | 5.2 µM | 5.86 µM | 7.22 µM
CC(O)(COc1ccc(C(F)(F)F)cc1)C(=O)Nc1ccc([N+](=O)[O-])c(C(F)(F)F)c1 (stereo not given) | 25.9 µM | Soluble | Soluble | 16.2 µM | 10.9 µM | 17.2 µM
CC(O)(CSc1cccc(C(F)(F)F)c1)C(=O)Nc1ccc(C#N)cc1C(F)(F)F (stereo not given) | 21.1 µM | Soluble | Soluble | 15.2 µM | 23.5 µM | 11.3 µM
CC(O)(COc1cccc(C(F)(F)F)c1)C(=O)Nc1ccc([N+](=O)[O-])c(C(F)(F)F)c1 (stereo not given) | 10 µM | Soluble | Soluble | 8.58 µM | 10.3 µM | 9.91 µM
CC1(C)C(=O)N(c2cccc(C(F)(F)F)c2)C(=O)N1c1ccccc1C(F)(F)F | 100 µM | Soluble | Soluble | 100 µM | 100 µM | 28.3 µM
CC(O)(CSc1ccc(C(F)(F)F)cn1)C(=O)Nc1ccc([N+](=O)[O-])cc1C(F)(F)F (stereo not given) | 19.7 µM | Soluble | Soluble | 13.6 µM | 17.2 µM | 11.1 µM
CC(O)(COc1cccc(C(F)(F)F)c1)C(=O)Nc1ccc(C#N)cc1C(F)(F)F (stereo not given) | 32.1 µM | Soluble | Soluble | 18.7 µM | 21.6 µM | 15.2 µM
CC(O)(CSc1ccc(OC(F)(F)F)cc1)C(=O)Nc1ccc([N+](=O)[O-])cc1C(F)(F)F (stereo not given) | 69.6 µM | Soluble | Soluble | 61.9 µM | 100 µM | 100 µM
C[C@](O)(CS(=O)(=O)c1cccc(C(F)(F)F)c1)C(=O)Nc1ccc(C#N)c(C(F)(F)F)c1 | 45.2 µM | Soluble | Soluble | 25.7 µM | 39.9 µM | 13.2 µM
CC(O)(COc1cccc(C(F)(F)F)c1)C(=O)Nc1ccc(C(F)(F)F)cc1 (stereo not given) | 27.4 µM | Soluble | Soluble | 25.7 µM | 18.6 µM | 18.2 µM
CC1(C)C(=O)N(c2cccc(C(F)(F)F)c2)C(=O)N1c1ccc(C(F)(F)F)cc1 | 100 µM | Soluble | Soluble | 92.5 µM | 100 µM | 16.6 µM
CC(O)(CS(=O)(=O)c1ccc(OC(F)(F)F)cc1)C(=O)Nc1ccc(C#N)c(C(F)(F)F)c1 (stereo not given) | 27.3 µM | Soluble | Soluble | 17 µM | 32.8 µM | 31.6 µM
CC1(C)C(=O)N(c2ccc(C(F)(F)F)cc2)C(=O)N1c1cccc(C(F)(F)F)c1 | 100 µM | Soluble | Soluble | 100 µM | 72.4 µM | 5.95 µM

SMILES | IC50 (DU-145) | solubility [1] | solubility [2] | IC50 (CWR22R) | IC50 (VCaP) | IC50 (LNCaP)
CC(O)(COc1ccc(F)c(F)c1)C(=O)Nc1ccc([N+](=O)[O-])c(C(F)(F)F)c1 (stereo not given) | 21.6 µM | Soluble | Soluble | 18.5 µM | 18.9 µM | 14.5 µM
C[C@](O)(CSc1ccc(OC(F)(F)F)cc1)C(=O)Nc1ccc(C#N)c(C(F)(F)F)c1 | 29.8 µM | Soluble | Soluble | 28.8 µM | 17.4 µM | 19.8 µM
C[C@](O)(CS(=O)(=O)c1ccc(F)cc1)C(=O)Nc1ccc(C#N)cc1C(F)(F)F | 100 µM | Soluble | Soluble | 100 µM | 100 µM | 85.5 µM
CC(O)(COc1cccc(C(F)(F)F)c1)C(=O)Nc1ccc(C#N)c(C(F)(F)F)c1 (stereo not given) | 10.8 µM | Soluble | Soluble | 5.89 µM | 9.04 µM | 8.31 µM
CC1(C)C(=O)N(c2cccc(C(F)(F)F)c2)C(=O)N1c1ccc([N+](=O)[O-])c(C(F)(F)F)c1 | 100 µM | Soluble | Soluble | 100 µM | 100 µM | 15.2 µM
CC1(C)C(=O)N(c2cccc(C(F)(F)F)c2)C(=O)N1c1ccc(C#N)cc1C(F)(F)F | 100 µM | Soluble | Soluble | 59.3 µM | 100 µM | 18.3 µM
CC(O)(COc1ccc(C#N)c(F)c1)C(=O)Nc1ccc(C#N)cc1C(F)(F)F (stereo not given) | 68.8 µM | Soluble | Soluble | 45.3 µM | 77.2 µM | 78.3 µM
CC(O)(CS(=O)(=O)c1ccc(F)cc1)C(=O)Nc1ccc(C#N)cc1C(F)(F)F (stereo not given) | 100 µM | Soluble | Soluble | 77 µM | 65.2 µM | 91.6 µM
CC(O)(CS(=O)(=O)c1ccc(F)c(F)c1)C(=O)Nc1ccc([N+](=O)[O-])cc1C(F)(F)F (stereo not given) | 48.1 µM | Soluble | Soluble | 33.6 µM | 37.3 µM | 19.5 µM
CC(O)(CSc1cc(C(F)(F)F)ccn1)C(=O)Nc1ccc([N+](=O)[O-])cc1C(F)(F)F (stereo not given) | 14 µM | Soluble | Soluble | 11.5 µM | 17.4 µM | 5.52 µM
CC(O)(CS(=O)(=O)c1ccc(C(F)(F)F)cc1)C(=O)Nc1ccc(C#N)cc1C(F)(F)F (stereo not given) | 44.6 µM | Soluble | Soluble | 27.9 µM | 43.3 µM | 32.9 µM
CC(O)(COc1ccccc1OC(F)(F)F)C(=O)Nc1ccc(C#N)cc1C(F)(F)F (stereo not given) | 27.1 µM | Soluble | Soluble | 16.7 µM | 43.9 µM | 33.8 µM
CC(O)(CS(=O)(=O)c1ccccc1C(F)(F)F)C(=O)Nc1ccc([N+](=O)[O-])cc1C(F)(F)F (stereo not given) | 46.1 µM | Soluble | Soluble | 28.3 µM | 38.6 µM | 20.5 µM
CC(O)(CS(=O)(=O)c1ccc(C(F)(F)F)cc1)C(=O)Nc1ccc([N+](=O)[O-])cc1C(F)(F)F (stereo not given) | 40.9 µM | Soluble | Soluble | 25.4 µM | 46.9 µM | 29.3 µM
CC1(C)C(=O)N(c2ccc(C(F)(F)F)cc2)C(=O)N1c1ccc(C#N)c(C(F)(F)F)c1 | 100 µM | Soluble | Soluble | 63.6 µM | 30.1 µM | 9.37 µM
CC(O)(COc1ccc(F)cc1F)C(=O)Nc1ccc(C#N)cc1C(F)(F)F (stereo not given) | 99.5 µM | Soluble | Soluble | 60.9 µM | 50.6 µM | 30.6 µM
CC(O)(CS(=O)(=O)c1cccc(OC(F)(F)F)c1)C(=O)Nc1ccc([N+](=O)[O-])cc1C(F)(F)F (stereo not given) | 27.7 µM | Soluble | Soluble | 18 µM | 20.3 µM | 12.2 µM
CC(O)(CSc1ccc(C(F)(F)F)cc1)C(=O)Nc1ccc(C#N)cc1C(F)(F)F (stereo not given) |  | Soluble | Soluble |  |  | 
CC(O)(CSc1ccc(C(F)(F)F)cc1)C(=O)Nc1ccc(C#N)c(C(F)(F)F)c1 (stereo not given) |  | Soluble | Soluble |  |  | 
C[C@](O)(CSc1ccccc1C(F)(F)F)C(=O)Nc1ccc(C#N)c(C(F)(F)F)c1 | 7.69 µM |  |  | 5.3 µM | 2.95 µM | 7.9 µM

Reference: ChEMBL document CHEMBL4477199, “Design and synthesis of novel bicalutamide and enzalutamide derivatives as antiproliferative agents for the treatment of prostate cancer” (Eur J Med Chem, 2016)
